From US20240199571A1, “THIOPHENE COMPOUND AND APPLICATION THEREOF” (MEDSHINE DISCOVERY INC., priority 2021, published 2024) come the findings set out here.

Where a name gives a salt, the structure may show the parent alone.

Data set [1] deals with human small cell lung cancer NCI-H1417 cell subcutaneous xenograft tumor. In words: Experiment 5: in vivo pharmacodynamic study, NCI-H1417 subcutaneous xenograft tumor in CB17-SCID mice. Particulars: p.o.; for Mean tumor volume ± SEM (mm^3) (Day 28): day 28 after administration; for TGI (%): tumor volume at day 28. The source says: Experiment 5: In Vivo Pharmacodynamic Study of Compounds on CB17-SCID Mouse Model of Human Small Cell Lung Cancer NCI-H1417 Cell Subcutaneous Xenograft Tumor
The purpose of this experiment was to evaluate the in vivo efficacy of the compounds of the present disclosure on CB17-SCID mouse model of human small cell lung cancer NCI-H1417 cell subcutaneous xenograft tumor.
5.2 Experimental Animals: • Species: mice • Strain: CB17-SCID mice • Week age and weight: 6-8 weeks old, 18 to 22 grams • Gender: Female • Supplier: Beijing Vital River Laboratory Animal Technology Co., Ltd.
Human lung cancer cells NCI-H1417 were cultured in vitro in suspension in RPMI 1640 medium with 10% fetal bovine serum, 100 U/mL penicillin, and 100 μg/mL streptomycin at 37° C. in a 5% CO2 cell culture incubator. Routine digestion and passage treatment were performed twice a week. When the number of cells reached the required number, the cells were counted and resuspended in PBS at a density of 10×10^6 cells/200 μL.
0.2 mL of NCI-H1417 tumor cells (containing 10×10^6 cells) suspension (PBS: matrix gel=1:1) was subcutaneously inoculated on the right back of mice, and in pharmacodynamic experiments, on the 16th day after cell inoculation, when the average tumor volume reached 86 mm^3, the subjects were randomly grouped and the administration started.
The experimental vehicle was 5% dimethyl sulfoxide/95% (10% Solutol) solution. Preparation method: 3.8 mL of […] was taken and added to 34.2 mL of double-distilled water, 2 mL of dimethyl sulfoxide was added thereto, and the mixture was mixed well. The test substance was dissolved with the vehicle, prepared as a homogeneous solution of a certain concentration, and stored at 4° C.
The experimental indicator was to examine whether tumor growth was inhibited, delayed, or cured. The tumor diameter was measured twice a week using vernier calipers. The calculation formula of tumor volume is V=0.5a×b^2, wherein a and b represent the long and short diameters of the tumor respectively.
The tumor inhibitory efficacy of compounds was evaluated by TGI (%). TGI (%) reflects the tumor growth inhibition rate. Calculation of TGI (%): TGI (%)=[1−(Average tumor volume at the end of administration in a certain treatment group−Average tumor volume at the beginning of administration in this treatment group)/(Average tumor volume at the end of treatment in the vehicle control group−Average tumor volume at the beginning of treatment in the vehicle control group)]×100%.

For a further data set, the target named is human LSD1 (Homo sapiens (Human), UniProt O60341). Nature of the data set: Experiment 1B: in vitro LSD1 enzyme activity, enzyme-coupled fluorescence (HRP/Amplex Red), H3(1-21)K4me2 peptide 10 μM (Reaction Biology). In kind it is biochemical. Particulars: histone H3(1-21)K4me2 peptide 10 μM. The gist of the method:
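Human LSD1 with 10 μM histone H3(1-21)K4me2 peptide; enzyme and substrate incubated 30 min before compound addition started the reaction. H2O2 detected via HRP/Amplex Red fluorescence (Ex/Em 535/590). IC50 from 10-point 3-fold dilutions starting at 10 μM.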

For a further data set, the system named is NCI-H1417 cells. In words: Experiment 2: inhibition of NCI-H1417 cell proliferation (CellTiter-Glo, 10 days). In kind it is cell-based. Particulars: Homo sapiens, 240 h, 10 days incubation. In outline:
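Cells at 1000 per well exposed to 10-point 3-fold dilutions from 10 μM top concentration for 10 days. Viability by CellTiter-Glo luminescence; inhibition normalized to max/min controls, IC50 from four-parameter fit.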

Data set [2] can be described thus: Experiment 3: pharmacokinetic evaluation in CD-1 mice (IV and oral). Particulars: mouse, plasma, male CD-1 mice; for clearance / half-life / Vd: IV 1 mg/kg; for clearance: read-out: Clearance rate CL; for half-life: read-out: Half life T1/2 (IV, h) (converted); for Vd: read-out: Volume of distribution at steady state Vdss; for bioavailability: PO 2 mg/kg vs IV 1 mg/kg, read-out: Bioavailability F (%); for AUC(0-t): PO 2 mg/kg, read-out: Area under drug-time curve AUC0-last PO; for Cmax: single dose, oral 2 mg/kg, read-out: Peak concentration Cmax. In kind it is in vivo. In outline: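 Male/female CD-1 mice aged 7-9 weeks, two per route, received single doses of 1 mg/kg IV or 2 mg/kg oral gavage in 10% DMSO/90% of 10% HP-β-cyclodextrin. Plasma was sampled from 0.083 (IV) or 0.25 (PO) to 24 h. Methanol-precipitated samples were measured by LC-MS/MS to derive Cmax, CL, T1/2, Vdss, AUC0-last and F.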

As usually defined, the IC50 is the concentration at which inhibition is half-maximal. By bioavailability is commonly meant the share of a dose that reaches the circulation, judged against a reference dose that is usually intravenous. Turning to `CC(C)(CO)n1cc2cc(-c3sc(C(=O)N4CCC[C@@H](N)C4)cc3-c3ccc(C#N)c(F)c3)ccc2n1` [Hydrochloride of compound 87], in data set [1] (30 mg/kg, BID), the “Mean tumor volume ± SEM (mm^3) (Day 28)” value worked out at 67 ± 5 mm^3 and the “TGI (%)” value worked out at 105.17%. Further, the IC50 against human LSD1 is 24.8 nM. Also, 5.11 nM corresponded to half-maximal inhibition in the data set on NCI-H1417 cells (IC50). Moreover, in data set [2], the clearance amounted to 25.7 mL/min/kg, the half-life is 1.54 h, the Vd amounted to 3.13 L/kg and the bioavailability came to 41.1%. Further, in data set [2], the AUC(0-t) amounted to 1.01 µM·h and the Cmax worked out at 267 nM.

For `CN[C@@H]1CCCN(C(=O)c2cc(-c3ccc(C#N)c(F)c3)c(-c3cc4nnn(CC(C)(C)O)c4c(F)c3F)s2)C1` [Hydrochloride of compound 98], in data set [1] (5 mg/kg, BID), the “Mean tumor volume ± SEM (mm^3) (Day 28)” value came to 34 ± 1 mm^3 and the “TGI (%)” value is given as 114.20%. Also, in data set [1] (5 mg/kg, QD), the “Mean tumor volume ± SEM (mm^3) (Day 28)” value was determined as 44 ± 2 mm^3 and the “TGI (%)” value is reported as 111.58%. Further, in data set [1] (10 mg/kg, QD), the “Mean tumor volume ± SEM (mm^3) (Day 28)” value is 38 ± 3 mm^3 and the “TGI (%)” value was 113.35%. The same compound had an IC50 against human LSD1 of 12.6 nM. This compound also registered an IC50 in the data set on NCI-H1417 cells of 0.07 nM. Moreover, in data set [2], the clearance worked out at 45.3 mL/min/kg, the half-life was 2.28 h, the Vd came to 6.94 L/kg and the bioavailability came to 58.6%. Besides, in data set [2], the AUC(0-t) came out at 0.708 µM·h and the Cmax was 160 nM.
